Values of other authors in the CATMoS acute toxicity set (Mansouri et al. 2021).

Experiment: rat acute oral toxicity
Details: in vivo
Description: […]The data set underlying the modeling effort for this project was initially compiled by NICEATM and U.S. EPA’s CCTE. Briefly, LD50 data were collected from rat acute oral systemic toxicity tests, including limit tests, ranges/confidence intervals, and discrete LD50 values. The full data set included 21,200 LD50 entries for 15,688 substances. […] Data were reviewed to ensure that LD50 values with obvious errors in the extracted data such as unit conversion errors (e.g., comma and decimal separator misplacements) were either fixed or removed. After this review, 16,209 LD50 values remained. Many of the chemicals represented had multiple LD50 entries, requiring that a single representative value per Chemical Abstracts Service Registry Number (CASRN) identifier be defined to facilitate modeling efforts. Based on ATWG feedback and to define the representative LD50 as a protective value while accounting for the distribution across multiple LD50s, the median of the lowest quartile was computed using only discrete LD50 values (omitting limit test data and range and confidence interval data). A detailed summary of the data compilation is available online on the NICEATM webpage dedicated to the collaborative modeling project (NTP 2020).
[…][…] For categorical designations, limit test and range/confidence interval LD50 data were integrated wherever possible. As such, the number of chemicals with end point values/calls varies across the modeling end points (Table 3) based on whether chemicals had representative LD50 values and/or other data. If a chemical had both, the representative value was used to determine categorical calls rather than limit test data. Some data were useable only for certain end points and categories depending on the thresholds. For example, ranges that spanned multiple hazard categories were considered only for the binary (very toxic/nontoxic) end points and omitted from rendering a determination for hazard category assignment.
[…]The final data set comprising 11,992 chemicals was split into training and evaluation sets […], respectively. This process was performed semirandomly by ordering chemicals based on the five end points (categorical and continuous LD50 values) and partitioning every fourth record into the evaluation set accordingly. This approach was taken to ensure an equivalent distribution of the LD50 values and the different hazard categories between the training and the evaluation sets without supervised sampling of the chemicals based on structures (Figure 1A). The sources of the chemical structures were also kept equivalent between the two sets, with chemical structures obtained from DSSTox, being the highest quality, representing over 75% of each set (Figure 1B).

Q: With `CC(CCCCCCCCCCCCCCCCC(=O)O)N(C)Cc1cc(C(C)N(C)CCCCCCCCCCCCCCCCCC(=O)O)cc(C(C)N(C)CCCCCCCCCCCCCCCCCC(=O)O)c1O` (centres undefined) as the molecule, how does the LD50 read?
A: The LD50 was 11800 mg/kg.

Q: Which LD50 does the source give for `CC(C)CCCCCOC(=O)COc1ccc(Cl)cc1Cl` here?
A: Its LD50 is 982 mg/kg.

Q: With `CCOc1ccccc1OCC` as the molecule, how does the LD50 read?
A: The LD50 was 7250 mg/kg.

Q: With `Clc1nc(Cl)c(Cl)c(Cl)c1Cl` as the molecule, how does the LD50 read?
A: Its LD50 is 435 mg/kg.

Q: For `O=Cc1ccc([N+](=O)[O-])cc1`, which LD50 is on record?
A: Its LD50 is 4700 mg/kg.

Q: With `CCc1ccc2c(c1)C(=O)c1ccccc1C2=O` as the molecule, how does the LD50 read?
A: Its LD50 is 2800 mg/kg.

Q: With `C=CC(C)NC(=S)NNC(=S)NC` (centres undefined) as the molecule, how does the LD50 read?
A: Its LD50 is 1000 mg/kg.

Q: With `Cc1cc(CC(=O)O)n(C)c1C(=O)c1ccc(Cl)cc1` as the molecule, how does the LD50 read?
A: Its LD50 is 27 mg/kg.

Q: Which LD50 does the source give for `COc1ccc(CCC2=NCCc3cc(OC)c(OC)cc32)cc1OC` here?
A: The LD50 was 900 mg/kg.

Q: Which LD50 does the source give for `CN(C)CC(=O)O` here?
A: The LD50 was 3900 mg/kg.

Q: Which LD50 does the source give for `O=C1C(CCSc2ccccc2)C(=O)N(c2ccccc2)N1c1ccccc1` here?
A: Its LD50 is 450 mg/kg.

Q: Which LD50 does the source give for `CCN1CCC(=C2c3ccccc3CCc3ccccc32)C1C` (centres undefined) here?
A: The LD50 was 600 mg/kg.

Q: For `CCOCC(C)O` (centres undefined), which LD50 is on record?
A: Its LD50 is 4400 mg/kg.

Q: With `CON=CC1=CCCN(OC(=O)Nc2ccc(Cl)cc2)C1` as the molecule, how does the LD50 read?
A: Its LD50 is 500 mg/kg.

Q: With `CN(c1ccc(Cl)cc1Cl)c1c([N+](=O)[O-])cc([N+](=O)[O-])cc1C(F)(F)F` as the molecule, how does the LD50 read?
A: Its LD50 is 4.5 mg/kg.

Q: Which LD50 does the source give for `COCCOC(=O)c1ccccc1C(=O)OCCOC` here?
A: The LD50 was 4400 mg/kg.

Q: With `CCCCC(CC)COC(C[n+]1ccccc1)c1cccc(C2CCCCC2)c1` (centres undefined) as the molecule, how does the LD50 read?
A: Its LD50 is 250 mg/kg.

Q: For `CC(C)(O)C(C)(O)c1ccc(Cl)cc1` (centres undefined), which LD50 is on record?
A: Its LD50 is 832 mg/kg.

Q: With `CC(C)(C)C(O)/C(=C\c1ccc(Cl)cc1)n1cncn1` (centres undefined) as the molecule, how does the LD50 read?
A: Its LD50 is 1790 mg/kg.

Q: Which LD50 does the source give for `C#CCc1ccc(COC(=O)C2C(C=C(C)C)C2(C)C)o1` (centres undefined) here?
A: Its LD50 is 10000 mg/kg.

Q: For `CCC(CC)C(=O)NC(=Cc1ccc(OC)cc1)C(=O)O`, which LD50 is on record?
A: The LD50 was 4000 mg/kg.

Q: With `C=CBr` as the molecule, how does the LD50 read?
A: Its LD50 is 500 mg/kg.

Q: With `CC(=O)OCC(COc1ccccc1)OC(C)=O` (centres undefined) as the molecule, how does the LD50 read?
A: Its LD50 is 5250 mg/kg.

Q: For `CC(C/N=C/c1ccccc1O)/N=C/c1ccccc1O` (centres undefined), which LD50 is on record?
A: The LD50 was 4560 mg/kg.

Q: Which LD50 does the source give for `CO[C@H]1C=CC2=CCN3CCC4=C(CC(=O)OC4)[C@]23C1` here?
A: Its LD50 is 510 mg/kg.

Q: Which LD50 does the source give for `C[C@H](Oc1ccc(Oc2nc3ccc(Cl)cc3o2)cc1)C(=O)O` here?
A: Its LD50 is 2090 mg/kg.

Q: For `COP(=S)(OC)SCn1nc(Cl)c(Cl)cc1=O`, which LD50 is on record?
A: Its LD50 is 12000 mg/kg.

Q: For `C=C(C)C(=O)OC[Si]12OCCN(CCO1)CCO2`, which LD50 is on record?
A: Its LD50 is 7950 mg/kg.

Q: For `Oc1cccc(Oc2ccccc2)c1`, which LD50 is on record?
A: The LD50 was 1210 mg/kg.

Q: Which LD50 does the source give for `O=S(=O)(C(Cl)CCl)C(Cl)CCl` (centres undefined) here?
A: Its LD50 is 250 mg/kg.

Q: For `Cc1ccc(C)c(C)c1C`, which LD50 is on record?
A: The LD50 was 6410 mg/kg.

Q: With `CC(N)C1CCC(c2ccccc2)CC1` (centres undefined) as the molecule, how does the LD50 read?
A: The LD50 was 690 mg/kg.

Q: Which LD50 does the source give for `CCOP(=O)(OCC)Oc1ccc(S(C)(=O)=O)c(C)c1` here?
A: Its LD50 is 8.13 mg/kg.

Q: Which LD50 does the source give for `O=C(Cc1c[nH]c2ccccc12)NN1C(=O)CSC1=S` here?
A: The LD50 was 432 mg/kg.

Q: With `CCN(CC)C(C)CN1c2ccccc2Sc2ccccc21` (centres undefined) as the molecule, how does the LD50 read?
A: Its LD50 is 1700 mg/kg.

Q: For `CC(C)OC(=O)COc1cc(Cl)c(Cl)cc1Cl`, which LD50 is on record?
A: The LD50 was 495 mg/kg.

Q: Which LD50 does the source give for `CS(=O)(=O)OCCCN(CCCOS(C)(=O)=O)C1CCCCC1` here?
A: The LD50 was 375 mg/kg.

Q: With `O=C(O)CNC(=O)c1ccc(Cl)cc1` as the molecule, how does the LD50 read?
A: The LD50 was 2230 mg/kg.

Q: With `COc1ccc(NS(=O)(=O)c2ccc(N)cc2)nn1` as the molecule, how does the LD50 read?
A: The LD50 was 2740 mg/kg.

Q: For `COc1cc(C(=O)N2CCOCC2)cc(OC)c1OC`, which LD50 is on record?
A: Its LD50 is 1800 mg/kg.

Q: Which LD50 does the source give for `CCOC(C1=NCC(C)(C)CN1)c1ccccc1Cl` (centres undefined) here?
A: The LD50 was 310 mg/kg.

Q: For `Cc1ccc(/N=C/NSN(Cc2ccccc2)Cc2ccccc2)c(C)c1`, which LD50 is on record?
A: The LD50 was 1050 mg/kg.

Q: Which LD50 does the source give for `CN(C)c1ccc(N=Nc2cccc(Br)c2)cc1` here?
A: Its LD50 is 13000 mg/kg.

Q: Which LD50 does the source give for `CCc1cc2c(s1)-n1c(C)nnc1CN=C2c1ccccc1Cl` here?
A: Its LD50 is 3510 mg/kg.

Q: For `CC(C)(O)Cc1ccccc1`, which LD50 is on record?
A: Its LD50 is 1280 mg/kg.

Q: With `CCC(=O)OCCc1ccccc1` as the molecule, how does the LD50 read?
A: The LD50 was 4000 mg/kg.

Q: Which LD50 does the source give for `CC(Cc1ccc(O)cc1)NCC(O)c1cc(O)cc(O)c1` (centres undefined) here?
A: Its LD50 is 1600 mg/kg.

Q: Which LD50 does the source give for `CC(Cl)(Cl)CCl` here?
A: The LD50 was 1140 mg/kg.

Q: Which LD50 does the source give for `O=C(O)CCCO` here?
A: Its LD50 is 9690 mg/kg.

Q: Which LD50 does the source give for `C=CCOC(=O)CC1CCCCC1` here?
A: The LD50 was 900 mg/kg.

Q: For `Cc1ccc(/C(=C\CN2CCCC2)c2ccccn2)cc1`, which LD50 is on record?
A: Its LD50 is 840 mg/kg.

Q: With `ClCc1ccccn1` as the molecule, how does the LD50 read?
A: Its LD50 is 316 mg/kg.

Q: For `O=c1ccc2cc(CCCCN3CCN(c4ccccc4)CC3)ccc2[nH]1`, which LD50 is on record?
A: The LD50 was 500 mg/kg.

Q: With `COc1cc(O)c(C(=O)c2ccccc2)cc1S(=O)(=O)O` as the molecule, how does the LD50 read?
A: The LD50 was 3530 mg/kg.

Q: With `COc1ccc2cc(C(C)C(=O)OCCO)ccc2c1` (centres undefined) as the molecule, how does the LD50 read?
A: The LD50 was 1720 mg/kg.

Q: With `Nc1ccc(Oc2ccc(N)cc2)cc1` as the molecule, how does the LD50 read?
A: The LD50 was 725 mg/kg.

Q: Which LD50 does the source give for `CN1C(=O)CN2CCc3ccccc3C2c2cc(Cl)ccc21` (centres undefined) here?
A: Its LD50 is 1730 mg/kg.

Q: With `C[C@]12CCC(=O)C=C1C=C[C@@H]1[C@@H]2CC[C@@]2(C)[C@H]1CC[C@@]2(O)CCC(=O)O` as the molecule, how does the LD50 read?
A: Its LD50 is 650 mg/kg.

Q: With `CCOc1ccc(C(=O)COC(=O)CCC(=O)O)c2ccccc12` as the molecule, how does the LD50 read?
A: The LD50 was 3500 mg/kg.
